From patent US11926627B1 (priority 2023, dated 2024)
≈ marks a conversion by molar mass, not a printed value. Where two headings read alike, the source gives them in different places.

Test system: Mycobacterium tuberculosis H37Rv (ATCC: 25177)
Assay: Resazurin Microplate Assay (REMA), antitubercular activity against H37Rv
Format: cell-based
Settings: 192 h, read-out: Antitubercular activity against Mycobacterium tuberculosis H37Rv (MIC)
[1] = H37Rv, ATCC: 25177, REMA, Middlebrook 7H9 broth, 8 days incubation at 37° C. then resazurin overnight

Structure (SMILES) | MIC [1] | MIC (H37RV)
COC(=O)c1c(C(=O)OC)c2ccc3cc(C)ccc3n2c1C(=O)c1ccc(Cl)cc1 [7-METHYL-QUIN4, Dimethyl 1-(4-chlorobenzoyl)-7-methylpyrrolo[1,2-α]quinoline-2,3-dicarboxylate] | 4 µg/mL (≈ 9.18 µM) | 
CCOC(=O)c1cc(C(=O)c2ccc(Cl)cc2)n2c1ccc1cc(C)ccc12 [7-METHYL-QUIN3, Ethyl 1-(4-chlorobenzoyl)-7-methylpyrrolo[1,2-α]quinoline-3-carboxylate] | 4 µg/mL (≈ 10.2 µM) | 
COC(=O)c1c(C(=O)OC)c2ccc3cc(C)ccc3n2c1C(=O)c1ccc(Br)cc1 [7-METHYL-QUIN2, Dimethyl 1-(4-bromobenzoyl)-7-methylpyrrolo[1,2-α]quinoline-2,3-dicarboxylate] | 2 µg/mL (≈ 4.16 µM) | 
COC(=O)c1c(C(=O)OC)c2ccc3cc(C)ccc3n2c1C(=O)c1ccc(F)cc1 [7-METHYL-QUIN1, Dimethyl 1-(4-fluorobenzoyl)-7-methylpyrrolo[1,2-α]quinoline-2,3-dicarboxylate] |  | 0.5 µg/mL (≈ 1.19 µM)
